We go through eight compounds from ChEMBL document CHEMBL1201862, “PubChem BioAssay data set” (2004).

Test systems include HOP-92; SW-620; NCI-H23; UACC-62; MDA-N; SN12C; SR; SF-539; SK-OV-3; KM12; IGROV-1; SNB-75; UACC-257; DU-145; A549; HCT-15; TK-10; PC-3; HT-29; HL-60.
Common to all, as to assay: growth of human tumour cells (NCI), 48 h

SMILES strings stand for the structures.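 Five concentrations, 48 hours, 96-well plates. The concentration for 50% growth inhibition is given as GI50.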 The source made the active and inactive calls. No stated cut-off is given here; in the data, active = GI50 up to about 1.1 µM and inactive = higher.

With `COc1c(C)c(C/C=C(\C)CCCCO[Si](C(C)C)(C(C)C)C(C)C)c(OC)c2ccccc12`, the GI50 in the experiment on HOP-92, with SW-620, in the experiment on NCI-H23, with UACC-62, with MDA-N and with SN12C was > 100 µM (inactive) throughout. Moreover, the GI50 in the experiment with SR is 70.1 µM (inactive); in the experiment with SF-539 it was > 100 µM (inactive); with SK-OV-3, > 100 µM (inactive); in the experiment on KM12, > 100 µM (inactive); in the experiment on IGROV-1, > 100 µM (inactive); in the experiment with SNB-75, > 100 µM (inactive). Moreover, the GI50 with UACC-257 is > 100 µM (inactive); in the experiment on DU-145, > 100 µM (inactive); in the experiment with A549 it was > 100 µM (inactive); with HCT-15 it was above 100 µM; in the experiment on TK-10, > 100 µM (inactive); in the experiment with PC-3, > 100 µM (inactive). In addition, the GI50 in the experiment on HT-29 was > 100 µM (inactive).
As to `Cn1c(=O)c2[nH]c(C3CC(=O)CC(c4nc5c([nH]4)c(=O)n(C)c(=O)n5C)N3)nc2n(C)c1=O` (stereo unspecified), the GI50 in the experiment with SW-620, with HL-60, in the experiment on NCI-H23, with UACC-62, in the experiment on MDA-N and in the experiment on SN12C was > 100 µM (inactive) throughout. The GI50 in the experiment with SR was 95.1 µM (inactive); in the experiment on SF-539, > 100 µM (inactive); with SK-OV-3, > 100 µM (inactive); with KM12 it was > 100 µM (inactive); with IGROV-1 it was > 100 µM (inactive); in the experiment on SNB-75, > 100 µM (inactive). The GI50 is > 100 µM (inactive) with UACC-257; > 100 µM (inactive) in the experiment with DU-145; > 100 µM (inactive) in the experiment on A549; above 100 µM with HCT-15; > 100 µM (inactive) in the experiment on TK-10; > 100 µM (inactive) in the experiment with PC-3. Moreover, the GI50 in the experiment with HT-29 is > 100 µM (inactive).
Turning to `COc1ccc(C2SCC(=O)N2NC2=NC(=O)CC(=O)N2)cc1` (stereo unspecified), the GI50 in the experiment on HOP-92, in the experiment with SW-620, with NCI-H23, with UACC-62, with MDA-N and with SN12C was > 100 µM (inactive) each time. Besides, the GI50 in the experiment on SR, in the experiment with SF-539, in the experiment on SK-OV-3, in the experiment with KM12, in the experiment on IGROV-1 and with SNB-75 was > 100 µM (inactive) in each case. The GI50 with UACC-257 is > 100 µM (inactive); in the experiment on DU-145, > 100 µM (inactive); in the experiment with A549, > 100 µM (inactive); with HCT-15, above 100 µM; with TK-10, > 100 µM (inactive); in the experiment on PC-3 it was > 100 µM (inactive). Moreover, the GI50 with HT-29 was > 100 µM (inactive).
Regarding `CCOP(=O)(OCC)/C(C#N)=C/c1ccnc2ccccc12`, the GI50 was 18.4 µM (inactive) with HOP-92; 27.3 µM (inactive) in the experiment with SW-620; 24.3 µM (inactive) in the experiment on NCI-H23; 26.1 µM (inactive) in the experiment with UACC-62; 21.9 µM (inactive) in the experiment with MDA-N; 28.6 µM (inactive) with SN12C. Besides, the GI50 with SR was 21.9 µM (inactive); with SF-539 it was 26.5 µM (inactive); in the experiment with SK-OV-3 it was 36.2 µM (inactive); in the experiment with KM12, 27.2 µM (inactive); in the experiment on IGROV-1, 45 µM (inactive); in the experiment on SNB-75, 25.9 µM (inactive). Also, the GI50 in the experiment with UACC-257 is 51.3 µM (inactive); in the experiment with DU-145 it was 34.8 µM (inactive); in the experiment on A549, > 100 µM (inactive); in the experiment with HCT-15, 21.3 µM; in the experiment with TK-10, 47.1 µM (inactive); in the experiment with PC-3 it was 17.6 µM (inactive). Moreover, the GI50 in the experiment on HT-29 is 19.7 µM (inactive).
In the case of `COc1cc(OC)c2nc(C)c(CCCl)c(Cl)c2c1`, the GI50 in the experiment on SW-620, in the experiment with HL-60, in the experiment on NCI-H23, with UACC-62, in the experiment with MDA-N and in the experiment with SN12C was > 100 µM (inactive) in each case. For the same compound, the GI50 in the experiment on SR, with SF-539, in the experiment on SK-OV-3, in the experiment with KM12, in the experiment on IGROV-1 and with SNB-75 was > 100 µM (inactive) throughout. For the same compound, the GI50 is > 100 µM (inactive) in the experiment with UACC-257; > 100 µM (inactive) in the experiment with DU-145; > 100 µM (inactive) with A549; above 100 µM in the experiment with HCT-15; > 100 µM (inactive) with TK-10; > 100 µM (inactive) in the experiment with PC-3. The GI50 with HT-29 was > 100 µM (inactive).
Consider `COc1ccc2c(c1)-c1c(c3cc(OC)ccc3n1CCN(C)C)CC2`, for which the GI50 with HOP-92 was 14.1 µM (inactive); in the experiment on SW-620, 15.2 µM (inactive); in the experiment with NCI-H23, 15.5 µM (inactive); in the experiment on UACC-62 it was 10.9 µM (inactive); with MDA-N, 14.2 µM (inactive); with SN12C, 12.9 µM (inactive). Besides, the GI50 is 7.03 µM (inactive) with SR; 15.4 µM (inactive) in the experiment on SF-539; 21.5 µM (inactive) in the experiment with SK-OV-3; 14 µM (inactive) in the experiment with KM12; 12.1 µM (inactive) with IGROV-1; 21.9 µM (inactive) with SNB-75. The GI50 in the experiment on UACC-257 is 15.6 µM (inactive); with DU-145, 13.7 µM (inactive); in the experiment on A549 it was 15.4 µM (inactive); in the experiment with HCT-15, 13.6 µM; in the experiment on TK-10 it was 15.5 µM (inactive); in the experiment on PC-3, 12.6 µM (inactive). In addition, in the experiment with HT-29, the GI50 was 5.18 µM (inactive).
Take `CN(NC(=O)/C(=C/C=C/c1ccccc1)NC(=O)c1ccccc1)C1=C(Cl)C(=O)[N+](c2ccccc2)=CC1`: the GI50 in the experiment on HOP-92 is 20.5 µM (inactive); in the experiment on SW-620 it was 16.4 µM (inactive); with NCI-H23, 35.4 µM (inactive); with MDA-N, 18.2 µM (inactive); in the experiment on SN12C, 24.8 µM (inactive); in the experiment on SR, 21.4 µM (inactive). Also, the GI50 with SF-539 was 19.7 µM (inactive); in the experiment on SK-OV-3 it was > 100 µM (inactive); with KM12, 16.7 µM (inactive); with IGROV-1, 12.1 µM (inactive); in the experiment on SNB-75, 21.6 µM (inactive); in the experiment with UACC-257, 41.2 µM (inactive). For the same compound, the GI50 in the experiment with DU-145 was 33 µM (inactive); in the experiment on A549, 26.3 µM (inactive); in the experiment on HCT-15, 24.2 µM; in the experiment with TK-10, 55.2 µM (inactive); in the experiment with PC-3 it was 35.7 µM (inactive); in the experiment with HT-29 it was 29.2 µM (inactive).
Consider `CC(=O)c1c(=O)n(-c2ccc(C)cc2)c(O)c2c(N)n[nH]c12`, for which the GI50 in the experiment on SW-620, in the experiment with HL-60, with NCI-H23, in the experiment on UACC-62, in the experiment with MDA-N and in the experiment on SN12C was > 100 µM (inactive) in each case. The GI50 in the experiment with SR, in the experiment with SF-539, in the experiment on SK-OV-3, with KM12, in the experiment with IGROV-1 and in the experiment on SNB-75 was > 100 µM (inactive) each time. Further, the GI50 in the experiment with UACC-257 was > 100 µM (inactive); with DU-145, > 100 µM (inactive); in the experiment with A549, > 100 µM (inactive); with HCT-15, above 100 µM; with TK-10 it was > 100 µM (inactive); in the experiment with PC-3 it was > 100 µM (inactive). In addition, the GI50 in the experiment with HT-29 was > 100 µM (inactive).
